Results from patent US12471596B2 (priority 2019, dated 2025).

Test system: Phytophthora infestans
Assay: microbe, parasite or virus in culture
Assay type: cell-based
Details: in Secale cereale, 168 h, read-out: control compared to the untreated check

Q: O=C(COc1cncc(C(F)(F)F)n1)N1CCC(c2nc(C3=NOC(c4c(Cl)cccc4C(F)(F)F)C3)cs2)CC1 (stereo not shown) [Compound 68, 1-(4-(4-(5-(2-chloro-6-(trifluoromethyl)phenyl)-4,5-dihydroisoxazol-3-yl)thiazol-2-yl)piperidin-1-yl)-2-((6-(trifluoromethyl)pyrazin-2-yl)oxy)ethan-1-one] was tested. Which inhibition of growth at 30 ppm did it give?
A: ≥ 70%

Q: CSc1nccnc1OCC(=O)N1CCC(c2nc(C3=NOC(c4c(Cl)cccc4C(F)(F)F)C3)cs2)CC1 (stereo not shown) [Compound 143, 1-(4-(4-(5-(2-chloro-6-(trifluoromethyl)phenyl)-4,5-dihydroisoxazol-3-yl)thiazol-2-yl)piperidin-1-yl)-2-((3-(methylthio)pyrazin-2-yl)oxy)ethan-1-one] was tested. Which inhibition of growth at 30 ppm did it give?
A: ≥ 70%

Q: With COc1cncc(OCC(=O)N2CCC(c3nc(C4=NOC(c5c(Cl)cccc5C#N)C4)cs3)CC2)n1 (stereo not shown) [Compound 100, 3-chloro-2-(3-(2-(1-(2-((6-methoxypyrazin-2-yl)oxy)acetyl)piperidin-4-yl)thiazol-4-yl)-4,5-dihydroisoxazol-5-yl)benzonitrile] as the compound, how does the inhibition of growth at 30 ppm read?
A: ≥ 70%

Q: With COc1ncc(OCC(=O)N2CCC(c3nc(C4=NOC(c5c(F)cccc5Cl)C4)cs3)CC2)cn1 (stereo not shown) [Compound 132, 1-(4-(4-(5-(2-chloro-6-fluorophenyl)-4,5-dihydroisoxazol-3-yl)thiazol-2-yl)piperidin-1-yl)-2-((2-methoxypyrimidin-5-yl)oxy)ethan-1-one] as the compound, how does the inhibition of growth at 30 ppm read?
A: ≥ 70%

Q: How did the inhibition of growth at 30 ppm turn out when COc1cncc(OCC(=O)N2CCC(c3nc(C4=NOC(c5c(Cl)cccc5C(F)(F)F)C4)cs3)CC2)n1 (stereo not shown) [Compound 102, 1-(4-(4-(5-(2-chloro-6-(trifluoromethyl)phenyl)-4,5-dihydroisoxazol-3-yl)thiazol-2-yl)piperidin-1-yl)-2-((6-methoxypyrazin-2-yl)oxy)ethan-1-one] was run?
A: ≥ 70%

Q: How did the inhibition of growth at 30 ppm turn out when COc1cc(OCC(=O)N2CCC(c3nc(C4=NOC(c5c(Cl)cccc5OS(C)(=O)=O)C4)cs3)CC2)ncn1 (stereo not shown) [Compound 160, 3-chloro-2-(3-(2-(1-(2-((6-methoxypyrimidin-4-yl)oxy)acetyl)piperidin-4-yl)thiazol-4-yl)-4,5-dihydroisoxazol-5-yl)phenyl methanesulfonate] was run?
A: ≥ 70%

Q: For CSc1nccnc1OCC(=O)N1CCC(c2nc(C3=NOC(c4cc(Cl)ccc4Cl)C3)cs2)CC1 (stereo not shown) [Compound 149, 1-(4-(4-(5-(2,5-dichlorophenyl)-4,5-dihydroisoxazol-3-yl)thiazol-2-yl)piperidin-1-yl)-2-((3-(methylthio)pyrazin-2-yl)oxy)ethan-1-one], which inhibition of growth at 30 ppm is on record?
A: ≥ 70%

Q: With O=C(COc1cnc(C(F)(F)F)cn1)N1CCC(c2nc(C3=NOC(c4c(Cl)cccc4Cl)C3)cs2)CC1 (stereo not shown) [Compound 88, 1-(4-(4-(5-(2,6-dichlorophenyl)-4,5-dihydroisoxazol-3-yl)thiazol-2-yl)piperidin-1-yl)-2-((5-(trifluoromethyl)pyrazin-2-yl)oxy)ethan-1-one] as the compound, how does the inhibition of growth at 30 ppm read?
A: ≥ 70%

Q: O=C(CSc1ccc(C(F)(F)F)nn1)N1CCC(c2nc(C3=NOC(c4c(F)cccc4F)C3)cs2)CC1 (stereo not shown) [Compound 150, 1-(4-(4-(5-(2,6-difluorophenyl)-4,5-dihydroisoxazol-3-yl)thiazol-2-yl)piperidin-1-yl)-2-((6-(trifluoromethyl)pyridazin-3-yl)thio)ethan-1-one] was tested. Which inhibition of growth at 30 ppm did it give?
A: ≥ 70%

Q: N#Cc1cccc(Cl)c1C1CC(c2csc(C3CCN(C(=O)COc4cncc(C(F)(F)F)n4)CC3)n2)=NO1 (stereo not shown) [Compound 56, 3-chloro-2-(3-(2-(1-(2-((6-(trifluoromethyl)pyrazin-2-yl)oxy)acetyl)piperidin-4-yl)thiazol-4-yl)-4,5-dihydroisoxazol-5-yl)benzonitrile] was tested. Which inhibition of growth at 30 ppm did it give?
A: ≥ 70%

Q: With N#Cc1cccc(Cl)c1C1CC(c2csc(C3CCN(C(=O)COc4nccc(C(F)(F)F)n4)CC3)n2)=NO1 (stereo not shown) [Compound 45, 3-chloro-2-(3-(2-(1-(2-((4-(trifluoromethyl)pyrimidin-2-yl)oxy)acetyl)piperidin-4-yl)thiazol-4-yl)-4,5-dihydroisoxazol-5-yl)benzonitrile] as the compound, how does the inhibition of growth at 30 ppm read?
A: ≥ 70%

Q: Which inhibition of growth at 30 ppm does the source give for COc1cncnc1OCC(=O)N1CCC(c2nc(C3=NOC(c4c(Cl)cc(Cl)cc4Cl)C3)cs2)CC1 (stereo not shown) [Compound 75, 2-((5-methoxypyrimidin-4-yl)oxy)-1-(4-(4-(5-(2,4,6-trichlorophenyl)-4,5-dihydroisoxazol-3-yl)thiazol-2-yl)piperidin-1-yl)ethan-1-one] here?
A: ≥ 70%

Q: O=C(COc1nccc(C(F)(F)F)n1)N1CCC(c2nc(C3=NOC(c4c(O)cccc4Cl)C3)cs2)CC1 (stereo not shown) [Compound 85, 1-(4-(4-(5-(2-chloro-6-hydroxyphenyl)-4,5-dihydroisoxazol-3-yl)thiazol-2-yl)piperidin-1-yl)-2-((4-(trifluoromethyl)pyrimidin-2-yl)oxy)ethan-1-one] was tested. Which inhibition of growth at 30 ppm did it give?
A: ≥ 70%

Q: For COc1cncc(OCC(=O)N2CCC(c3nc(C4=NOC(c5c(F)cccc5Cl)C4)cs3)CC2)n1 (stereo not shown) [Compound 101, 1-(4-(4-(5-(2-chloro-6-fluorophenyl)-4,5-dihydroisoxazol-3-yl)thiazol-2-yl)piperidin-1-yl)-2-((6-methoxypyrazin-2-yl)oxy)ethan-1-one], which inhibition of growth at 30 ppm is on record?
A: ≥ 70%

Q: Which inhibition of growth at 30 ppm does the source give for COc1ncc(OCC(=O)N2CCC(c3nc(C4=NOC(c5cc(Cl)ccc5Cl)C4)cs3)CC2)cn1 (stereo not shown) [Compound 135, 1-(4-(4-(5-(2,5-dichlorophenyl)-4,5-dihydroisoxazol-3-yl)thiazol-2-yl)piperidin-1-yl)-2-((2-methoxypyrimidin-5-yl)oxy)ethan-1-one] here?
A: ≥ 70%

Q: Which inhibition of growth at 30 ppm does the source give for CSc1nccnc1OCC(=O)N1CCC(c2nc(C3=NOC(c4c(F)cccc4F)C3)cs2)CC1 (stereo not shown) [Compound 140, 1-(4-(4-(5-(2,6-difluorophenyl)-4,5-dihydroisoxazol-3-yl)thiazol-2-yl)piperidin-1-yl)-2-((3-(methylthio)pyrazin-2-yl)oxy)ethan-1-one] here?
A: ≥ 70%

Q: Which inhibition of growth at 30 ppm does the source give for O=C(COc1cc(C(F)(F)F)ncn1)N1CCC(c2nc(C3=NOC(c4c(Cl)cccc4C(F)(F)F)C3)cs2)CC1 (stereo not shown) [Compound 10, 1-(4-(4-(5-(2-chloro-6-(trifluoromethyl)phenyl)-4,5-dihydroisoxazol-3-yl)thiazol-2-yl)piperidin-1-yl)-2-((6-(trifluoromethyl)pyrimidin-4-yl)oxy)ethan-1-one] here?
A: ≥ 70%

Q: Which inhibition of growth at 30 ppm does the source give for O=C(COc1nccc(C(F)(F)F)n1)N1CCC(c2nc(C3=NOC(c4c(Cl)ccc(F)c4F)C3)cs2)CC1 (stereo not shown) [Compound 70, 1-(4-(4-(5-(6-chloro-2,3-difluorophenyl)-4,5-dihydroisoxazol-3-yl)thiazol-2-yl)piperidin-1-yl)-2-((4-(trifluoromethyl)pyrimidin-2-yl)oxy)ethan-1-one] here?
A: ≥ 70%

Q: For O=C(COc1nccc(C(F)(F)F)n1)N1CCC(c2nc(C3=NOC(c4c(Cl)cccc4Cl)C3)cs2)CC1 (stereo not shown) [Compound 47, 1-(4-(4-(5-(2,6-dichlorophenyl)-4,5-dihydroisoxazol-3-yl)thiazol-2-yl)piperidin-1-yl)-2-((4-(trifluoromethyl)pyrimidin-2-yl)oxy)ethan-1-one], which inhibition of growth at 30 ppm is on record?
A: ≥ 70%

Q: With CS(=O)(=O)c1nccnc1OCC(=O)N1CCC(c2nc(C3=NOC(c4c(F)cccc4F)C3)cs2)CC1 (stereo not shown) [Compound 157, 1-(4-(4-(5-(2,6-difluorophenyl)-4,5-dihydroisoxazol-3-yl)thiazol-2-yl)piperidin-1-yl)-2-((3-(methylsulfonyl)pyrazin-2-yl)oxy)ethan-1-one] as the compound, how does the inhibition of growth at 30 ppm read?
A: ≥ 70%

Q: How did the inhibition of growth at 30 ppm turn out when COc1ncc(OCC(=O)N2CCC(c3nc(C4=NOC(c5c(O)cccc5Cl)C4)cs3)CC2)cn1 (stereo not shown) [Compound 138, 1-(4-(4-(5-(2-chloro-6-hydroxyphenyl)-4,5-dihydroisoxazol-3-yl)thiazol-2-yl)piperidin-1-yl)-2-((2-methoxypyrimidin-5-yl)oxy)ethan-1-one] was run?
A: ≥ 70%

Q: With COc1cncnc1OCC(=O)N1CCC(c2nc(C3=NOC(c4c(F)cccc4Br)C3)cs2)CC1 (stereo not shown) [Compound 78, 1-(4-(4-(5-(2-bromo-6-fluorophenyl)-4,5-dihydroisoxazol-3-yl)thiazol-2-yl)piperidin-1-yl)-2-((5-methoxypyrimidin-4-yl)oxy)ethan-1-one] as the compound, how does the inhibition of growth at 30 ppm read?
A: ≥ 70%

Q: Which inhibition of growth at 30 ppm does the source give for COc1cncnc1OCC(=O)N1CCC(c2nc(C3=NOC(c4c(F)cccc4F)C3)cs2)CC1 (stereo not shown) [Compound 76, 1-(4-(4-(5-(2,6-difluorophenyl)-4,5-dihydroisoxazol-3-yl)thiazol-2-yl)piperidin-1-yl)-2-((5-methoxypyrimidin-4-yl)oxy)ethan-1-one] here?
A: ≥ 70%

Q: For COc1cncnc1OCC(=O)N1CCC(c2nc(C3=NOC(c4c(Cl)ccc(F)c4F)C3)cs2)CC1 (stereo not shown) [Compound 81, 1-(4-(4-(5-(6-chloro-2,3-difluorophenyl)-4,5-dihydroisoxazol-3-yl)thiazol-2-yl)piperidin-1-yl)-2-((5-methoxypyrimidin-4-yl)oxy)ethan-1-one], which inhibition of growth at 30 ppm is on record?
A: ≥ 70%

Q: For COc1nc(OC)nc(OCC(=O)N2CCC(c3nc(C4=NOC(c5c(F)cccc5Cl)C4)cs3)CC2)n1 (stereo not shown) [Compound 98, 1-(4-(4-(5-(2-chloro-6-fluorophenyl)-4,5-dihydroisoxazol-3-yl)thiazol-2-yl)piperidin-1-yl)-2-((4,6-dimethoxy-1,3,5-triazin-2-yl)oxy)ethan-1-one], which inhibition of growth at 30 ppm is on record?
A: ≥ 70%

Q: With COc1cncnc1OCC(=O)N1CCC(c2nc(C3=NOC(c4c(O)cccc4Cl)C3)cs2)CC1 (stereo not shown) [Compound 79, 1-(4-(4-(5-(2-chloro-6-hydroxyphenyl)-4,5-dihydroisoxazol-3-yl)thiazol-2-yl)piperidin-1-yl)-2-((5-methoxypyrimidin-4-yl)oxy)ethan-1-one] as the compound, how does the inhibition of growth at 30 ppm read?
A: ≥ 70%

Q: For O=C(COc1nccc(C(F)(F)F)n1)N1CCC(c2nc(C3=NOC(c4c(Cl)cccc4C(F)(F)F)C3)cs2)CC1 (stereo not shown) [Compound 84, 1-(4-(4-(5-(2-chloro-6-(trifluoromethyl)phenyl)-4,5-dihydroisoxazol-3-yl)thiazol-2-yl)piperidin-1-yl)-2-((4-(trifluoromethyl)pyrimidin-2-yl)oxy)ethan-1-one], which inhibition of growth at 30 ppm is on record?
A: ≥ 70%

Q: With COc1cncnc1OCC(=O)N1CCC(c2nc(C3=NOC(c4c(Cl)cccc4C(F)(F)F)C3)cs2)CC1 (stereo not shown) [Compound 80, 1-(4-(4-(5-(2-chloro-6-(trifluoromethyl)phenyl)-4,5-dihydroisoxazol-3-yl)thiazol-2-yl)piperidin-1-yl)-2-((5-methoxypyrimidin-4-yl)oxy)ethan-1-one] as the compound, how does the inhibition of growth at 30 ppm read?
A: ≥ 70%
